Consider one compound from ChEMBL document CHEMBL4765420, “Design, synthesis and biological evaluation of novel HDAC inhibitors with improved pharmacokinetic profile in breast cancer” (Eur J Med Chem, 2020).

The target of assay [1] is T1, Protein deacetylase HDAC6 (Homo sapiens, UniProt Q9UBN7).
T1 sequence (Q9UBN7 whole entry): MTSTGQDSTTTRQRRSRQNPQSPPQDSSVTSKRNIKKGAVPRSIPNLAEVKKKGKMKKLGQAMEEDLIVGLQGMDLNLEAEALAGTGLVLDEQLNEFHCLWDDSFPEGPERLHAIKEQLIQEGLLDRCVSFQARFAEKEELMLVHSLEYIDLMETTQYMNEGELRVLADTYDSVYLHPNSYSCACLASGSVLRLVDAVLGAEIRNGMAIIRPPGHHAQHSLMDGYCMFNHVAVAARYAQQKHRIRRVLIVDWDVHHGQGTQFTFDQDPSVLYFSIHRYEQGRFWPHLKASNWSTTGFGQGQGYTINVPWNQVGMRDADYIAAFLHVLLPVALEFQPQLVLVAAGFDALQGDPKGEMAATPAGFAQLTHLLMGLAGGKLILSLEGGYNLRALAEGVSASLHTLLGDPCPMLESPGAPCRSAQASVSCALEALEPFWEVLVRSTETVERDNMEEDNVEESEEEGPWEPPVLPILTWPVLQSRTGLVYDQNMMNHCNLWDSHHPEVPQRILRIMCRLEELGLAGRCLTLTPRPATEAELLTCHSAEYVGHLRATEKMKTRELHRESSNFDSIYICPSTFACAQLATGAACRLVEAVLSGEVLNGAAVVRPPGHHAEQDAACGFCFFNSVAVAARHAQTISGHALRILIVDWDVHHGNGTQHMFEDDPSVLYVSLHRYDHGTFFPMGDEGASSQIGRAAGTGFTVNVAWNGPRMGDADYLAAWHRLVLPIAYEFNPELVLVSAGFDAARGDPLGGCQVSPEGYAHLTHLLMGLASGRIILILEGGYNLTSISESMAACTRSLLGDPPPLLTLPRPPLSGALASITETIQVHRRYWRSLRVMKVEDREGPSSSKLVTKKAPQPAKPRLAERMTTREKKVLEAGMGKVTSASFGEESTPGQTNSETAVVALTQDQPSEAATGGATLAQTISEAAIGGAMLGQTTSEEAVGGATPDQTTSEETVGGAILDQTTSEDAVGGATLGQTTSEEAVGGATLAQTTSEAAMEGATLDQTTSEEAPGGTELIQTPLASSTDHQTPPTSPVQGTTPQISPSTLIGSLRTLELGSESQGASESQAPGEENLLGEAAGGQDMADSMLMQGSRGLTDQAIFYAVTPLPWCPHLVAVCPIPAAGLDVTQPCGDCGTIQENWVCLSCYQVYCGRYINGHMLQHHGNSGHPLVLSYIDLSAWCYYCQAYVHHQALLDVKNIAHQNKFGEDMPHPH
The experiment in a line: Inhibition of recombinant human His-tagged HDAC6 expressed in baculovirus infected insect cells using Ac-Leu-Gly-Lys(Ac)-AMC as substrate measured after 30 mins by fluorescence assay.

The next assay concerns the target Histone deacetylase 1 (Homo sapiens, UniProt Q13547). The experiment in a line: Inhibition of recombinant human His-tagged HDAC1 expressed in insect cells using Ac-Leu-Gly-Lys(Ac)-AMC as substrate measured after 30 mins by fluorescence assay.
The next assay deals with Histone deacetylase 4 (Homo sapiens, UniProt P56524). The experiment in a line: Inhibition of recombinant human N-terminal GST-tagged HDAC4 (627 to end residues) expressed in baculovirus infected Sf9 insect cells using AcLeu-Gly-Lys(Tfa)-AMC as substrate measured after 30 mins by fluorescence assay.
The target in assay [2] is T2, Protein deacetylase HDAC6 (Homo sapiens) (UniProt Q9UBN7).
T2 sequence (whole entry): T1 sequence (Q9UBN7 whole entry)
The experiment in a line: Inhibition of HDAC6 in human MDA-MB-231 cells assessed as increase in alpha-tubulin acetylation at 2.5 to 10 uM measured after 24 hrs by Western blot analysis. Format: cell-based. The conditions noted are these: dose 2.5-10 µM. For orientation: A western blot detects proteins with antibodies after separation by electrophoresis.

Assay [3] relates to MDA-MB-231. The experiment in a line: Induction of apoptosis in human MDA-MB-231 cells assessed as viable cells at 2.5 uM measured after 24 hrs by Annexin-V/propidium iodide staining based flow cytometry (reference value: 95.68 to 98.38%). Format: functional. As to conditions: read-out: Activity. (Flow cytometry measures light scatter and fluorescence of single cells or particles in a stream.)

Assay [4] relates to MDA-MB-231. The experiment in a line: Induction of apoptosis in human MDA-MB-231 cells assessed as late apoptotic cells at 2.5 uM measured after 24 hrs by Annexin-V/propidium iodide staining based flow cytometry (reference value: 0.71 to 2.94%). Format: functional.
Assay [5] deals with MDA-MB-231. The experiment in a line: Induction of apoptosis in human MDA-MB-231 cells assessed as late apoptotic cells at 5 uM measured after 24 hrs by Annexin-V/propidium iodide staining based flow cytometry (reference value: 0.71 to 2.94%). Type of assay: functional.
For assay [6], the system named is MDA-MB-231. The assay is described as follows: Induction of apoptosis in human MDA-MB-231 cells assessed as early apoptotic cells at 10 uM measured after 24 hrs by Annexin-V/propidium iodide staining based flow cytometry (reference value: 0.69 to 0.92%). Format: functional.
For assay [7], the system named is MDA-MB-231. The assay is described as follows: Induction of apoptosis in human MDA-MB-231 cells assessed as late apoptotic cells at 10 uM measured after 24 hrs by Annexin-V/propidium iodide staining based flow cytometry (reference value: 0.71 to 2.94%). Format: functional.
In assay [8] the test system is MDA-MB-231. The assay is described as follows: Induction of apoptosis in human MDA-MB-231 cells assessed as up regulation of Bax expression at 2.5 to 10 uM measured after 24 hrs by Western blot analysis. The conditions noted are these: dose 2.5-10 µM. Format: functional, cell-based.
For assay [9], the system named is MDA-MB-231. The experiment in a line: Induction of apoptosis in human MDA-MB-231 cells assessed as down regulation of Bcl-2 expression at 2.5 to 10 uM measured after 24 hrs by Western blot analysis. As to conditions: dose 2.5-10 µM. Type of assay: functional, cell-based.
The test system of assay [10] is MDA-MB-231. The assay is described as follows: Inhibition of cell migration in human MDA-MB-231 cells assessed as increase in E-cadherin expression at 2.5 to 10 uM measured after 24 hrs Western blot analysis. Format: functional, cell-based. As to conditions: dose 2.5-10 µM.
Assay [11] relates to MDA-MB-231. The experiment in a line: Inhibition of cell migration in human MDA-MB-231 cells assessed as decrease in MMP2 expression at 2.5 to 10 uM measured after 24 hrs Western blot analysis. As to conditions: dose 2.5-10 µM. Type of assay: functional, cell-based.
The test system of assay [12] is MDA-MB-231. The assay is described as follows: Induction of endoplasmic reticulum stress in human MDA-MB-231 cells assessed as increase in PERK expression at 2.5 to 10 uM measured after 24 hrs by DAPI staining based immunofluorescence assay. Format: functional, cell-based. As to conditions: dose 2.5-10 µM.
Assay [13] concerns MDA-MB-231. The assay is described as follows: Induction of endoplasmic reticulum stress in human MDA-MB-231 cells assessed as increase in PERK expression at 2.5 to 10 uM measured after 24 hrs by Western blot analysis. Format: functional, cell-based. The conditions noted are these: dose 2.5-10 µM.
The subject of assay [14] is MDA-MB-231. The assay is described as follows: Induction of autophagy in human MDA-MB-231 cells expressing GFP-mRFP-LC3 assessed as increase in LC3 punta aggregation at 2.5 to 10 uM measured after 24 hrs by immunofluorescence assay. The conditions noted are these: dose 2.5-10 µM. Type of assay: functional, cell-based.
For assay [15], the system named is MDA-MB-231. The assay is described as follows: Induction of autophagy in human MDA-MB-231 cells assessed as increase in Beclin1 expression at 2.5 to 10 uM measured after 24 hrs by Western blot analysis. Format: functional, cell-based. As to conditions: dose 2.5-10 µM.

Activity calls are given as the source filed them. The rule behind the calls is not given here. Some results are limits rather than exact numbers.

Histone deacetylase 1, sequence (Q13547 whole entry): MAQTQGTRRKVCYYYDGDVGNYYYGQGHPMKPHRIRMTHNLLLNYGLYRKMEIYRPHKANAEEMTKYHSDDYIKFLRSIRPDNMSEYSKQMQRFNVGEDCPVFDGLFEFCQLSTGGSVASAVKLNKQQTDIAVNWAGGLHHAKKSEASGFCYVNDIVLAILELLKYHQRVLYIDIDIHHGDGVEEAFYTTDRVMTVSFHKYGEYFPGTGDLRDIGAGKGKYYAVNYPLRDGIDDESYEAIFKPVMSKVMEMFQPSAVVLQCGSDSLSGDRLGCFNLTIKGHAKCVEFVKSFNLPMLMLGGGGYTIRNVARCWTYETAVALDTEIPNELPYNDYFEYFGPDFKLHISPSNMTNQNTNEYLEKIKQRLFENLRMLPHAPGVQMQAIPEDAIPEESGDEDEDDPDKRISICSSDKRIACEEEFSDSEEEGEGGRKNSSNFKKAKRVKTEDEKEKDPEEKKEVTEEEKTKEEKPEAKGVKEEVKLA
Histone deacetylase 4, sequence (P56524 whole entry): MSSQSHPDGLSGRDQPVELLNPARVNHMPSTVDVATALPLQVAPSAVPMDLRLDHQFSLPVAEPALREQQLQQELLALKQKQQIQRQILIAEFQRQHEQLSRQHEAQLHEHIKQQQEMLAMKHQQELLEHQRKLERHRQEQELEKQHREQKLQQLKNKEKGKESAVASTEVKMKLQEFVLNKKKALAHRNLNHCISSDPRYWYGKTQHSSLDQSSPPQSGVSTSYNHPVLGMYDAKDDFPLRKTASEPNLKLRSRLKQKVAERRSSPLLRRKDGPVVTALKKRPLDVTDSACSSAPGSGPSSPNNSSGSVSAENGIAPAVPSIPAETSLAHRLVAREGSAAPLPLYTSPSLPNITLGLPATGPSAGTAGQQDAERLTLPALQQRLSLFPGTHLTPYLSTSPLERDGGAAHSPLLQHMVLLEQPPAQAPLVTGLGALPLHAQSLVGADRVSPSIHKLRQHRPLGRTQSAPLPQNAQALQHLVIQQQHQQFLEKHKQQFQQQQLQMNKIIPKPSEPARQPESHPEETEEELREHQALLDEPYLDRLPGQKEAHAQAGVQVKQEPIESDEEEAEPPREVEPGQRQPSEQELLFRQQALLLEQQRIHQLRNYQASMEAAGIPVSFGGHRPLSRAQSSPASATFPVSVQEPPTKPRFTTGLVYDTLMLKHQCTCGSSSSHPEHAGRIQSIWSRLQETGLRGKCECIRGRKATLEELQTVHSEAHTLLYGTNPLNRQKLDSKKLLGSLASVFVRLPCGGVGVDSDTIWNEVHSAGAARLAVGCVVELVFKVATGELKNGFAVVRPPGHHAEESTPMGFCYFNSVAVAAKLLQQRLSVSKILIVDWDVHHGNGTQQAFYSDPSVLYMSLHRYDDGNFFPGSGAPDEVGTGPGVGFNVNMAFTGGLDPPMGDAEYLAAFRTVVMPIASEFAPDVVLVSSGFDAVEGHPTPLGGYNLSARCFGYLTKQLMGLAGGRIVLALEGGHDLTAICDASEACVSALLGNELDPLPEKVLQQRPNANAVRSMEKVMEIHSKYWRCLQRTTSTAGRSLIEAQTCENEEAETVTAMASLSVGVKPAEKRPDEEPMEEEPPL

As to `COc1cc(OC)c2c(N3CCS(=O)(=O)CC3)nc(-c3cc(C)c(OCCCCCC(=O)NO)c(C)c3)nc2c1`, the IC50 was 55.3 nM in assay [1], 99.6 nM on Histone deacetylase 1 and over 1000 nM at Histone deacetylase 4. Besides, the inhibition entry in assay [2] is “Active”. Besides, the viability at 2.5 µM with MDA-MB-231 [3] amounted to 84.2%. Moreover, the Activity in the assay on MDA-MB-231 [4] came out at 3.01%; in the assay with MDA-MB-231 [5], 11.79%; in the assay on MDA-MB-231 [6] it was 38.66%; in the assay with MDA-MB-231 [7], 35.5%. The result in the assay on MDA-MB-231 [8], in the assay with MDA-MB-231 [9], in the assay with MDA-MB-231 [10], in the assay with MDA-MB-231 [11], in the assay with MDA-MB-231 [12] and with MDA-MB-231 [13] was Active. Besides, the result in the assay with MDA-MB-231 [14] and in the assay on MDA-MB-231 [15] was Active.

As usually defined, the IC50 is the concentration at which inhibition is half-maximal.
